For orientation: EC50 means the concentration giving half of the maximal effect. The IC50 is the concentration at which inhibition is half-maximal. The low end stands for inhibition by little substance, the high end for a need for much substance.

This test concerns CEM cells HIV-1 protection, formazan growth assay. Kind of test: NCI AIDS Antiviral Assay. Particulars: for IC50: measured here: growth of uninfected CEM cells. A digest of the protocol:
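Category rules: moderately active means at least 50% protection on retest, and confirmed active means 100% protection reproducibly. The underlying data came from a formazan growth assay in HIV-1-infected CEM cells.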

The source made the active and inactive calls.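 Rule for the calls: active = compounds giving half or more protection of infected cells from virus-caused growth loss, again on retest; inactive = the rest.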

Take `Cc1cn(C2CC(N=[N+]=[N-])C(COC(=O)CCCCCCCCCc3ccccc3)O2)c(=O)[nH]c1=O` (stereo not given): the EC50 is 0.129 µM and the IC50 worked out at 110 µM.
In the same order, the values of `CC(C)CC(NC(=O)OC(C)(C)C)C(=O)Nc1ccc(Nc2nc(F)nc(-c3c4ccccc4c4n3CCS4)n2)cc1` (stereo not given) are above 6.03 µM and above 6.03 µM.
Taken in the same sequence, the figures for `COc1ccnc(C(=O)N2CCCC2C(=O)O)c1` (stereo not given) were above 200 µM and above 200 µM.
In the same order, the values of `COC(=O)C12c3ccccc3C(c3ccccc31)c1c(N=O)ccc(NO)c12` are above 19.5 µM and above 19.5 µM.
`N#CC(=C1CCN(Cc2ccccc2)CC1)c1ccccc1`: the EC50 was above 200 µM and the 50% inhibitory concentration (IC50) worked out at 81.3 µM.
In the same order, the values of `CCCCCCCCCC[C@@H](OC(C)=O)[C@@H]1CC[C@@H]([C@@H]2CC[C@@H]([C@@H](O)CC#C/C=C/CCCCCCC[C@@]3(Sc4ccccc4)C[C@H](C)OC3=O)O2)O1` are above 200 µM and 182 µM.
Take `CCC(=O)N(C)[C@@H](C)C(=O)O[C@H]1CC(=O)N(C)c2cc(cc(OC)c2Cl)C/C(C)=C/C=C[C@@H](OC)[C@@]2(O)C[C@H](OC(=O)N2)[C@@H](C)[C@@H]2O[C@@]12C`: the outcome was inactive.
As to `O=C(O)c1nc2cc(C(F)(F)F)ccc2nc1Nc1ccc(Cl)c(Cl)c1`, the EC50 is above 200 µM and the IC50 stood at 10 µM.
Taken in the same sequence, the figures for `CN/C=C(\C(=O)c1ccc(OC)c(OC)c1)c1ccc(OC)cc1` were above 398 µM and 6.92 µM.
In the same order, the values of `CCOC(=O)c1sc2nc(SC)nc3c2c1NCN3C1CC1` are above 100 µM and above 100 µM.
Regarding `O=C1CC(c2ccccc2)n2c(nc3ccccc32)N1` (stereo not given), the EC50 is above 151 µM and the half-maximal inhibitory concentration (IC50) was 67.6 µM.
Taken in the same sequence, the figures for `C=C1C(=O)OC2C3C(C)=CC(=O)C3=C(C)CC[C@@H]12` (stereo not given in full) were above 30.9 µM and 2.04 µM.
For the molecule `C=C1C=CC2(Br)OC3CC(C)(Cl)C(Br)CC13C2(C)C` (stereo not given), the outcome was inactive.
For the molecule `O=C1CC2C1C1C=CC2n2c(=O)n(-c3ccccc3)c(=O)n21` (stereo not given), the EC50 is above 224 µM and the IC50 is above 224 µM.
Consider `O=C1OCC(Cc2ccc3c(c2)OCO3)[C@H]1Cc1ccccc1` (stereo not given in full), for which the EC50 was above 200 µM and the 50% inhibitory concentration (IC50) is 186 µM.
On to `NCP(=O)(O)OCC(=O)O`, for which the outcome was inactive.
With `c1ccc(-c2nc3n(n2)CCC(c2ccccc2)S3)cc1` (stereo not given), the EC50 was 45.7 µM and the IC50 is above 200 µM.
With `CCN(CCCl)c1cc(C(=O)Nc2cc(NC(=O)c3cc(N(CC)CCCl)c([N+](=O)[O-])cc3[N+](=O)[O-])cc(C(=O)NCCN(C)C)c2)c([N+](=O)[O-])cc1[N+](=O)[O-]`, the EC50 was above 200 µM and the IC50 was found to be 126 µM.
Taken in the same sequence, the figures for `NC1=NCC(CN2CCCC2)O1` (stereo not given) were above 200 µM and above 200 µM.
In the case of `COC(=O)NC12CC3CC(CC(F)(C3)C1)C2`, the EC50 was above 575 µM and the IC50 is 145 µM.
In the same order, the values of `CCOC(=O)C1(C#N)C(=O)c2cc[n+](CC[n+]3ccc4c(c3)C(=O)C(C#N)(C(=O)OCC)C4=O)cc2C1=O` (stereo not given) are above 200 µM and 107 µM.
In the same order, the values of `COc1cccc2c1C(c1ccc3ccccc3c1)OC2=O` (stereo not given) are above 46.8 µM and 25.1 µM.
Regarding `CCOCc1c(C)cc(C)c(C2C(C(=O)c3ccccc3)N3c4ccccc4C=CC3C2(C#N)C(=O)OCC)c1C` (stereo not given), the EC50 is above 200 µM and the IC50 was determined as 33.9 µM.
Taken in the same sequence, the figures for `CCOc1ccc(-c2oc(/C=N/NS(=O)(=O)c3ccc(C)cc3)c([N+](=O)[O-])c2-c2ccc(OCC)cc2)cc1` were above 3.63 µM and above 3.63 µM.
On to `NC(=O)NCOC(=S)SSSC(=S)OCNC(N)=O`, for which the EC50 is above 200 µM and the 50% inhibitory concentration (IC50) is 32.4 µM.
In the same order, the values of `COc1ccc2c(c1)OC(OC)(c1ccc(OC)c(OC)c1)C(O)(OC)C2=O` (stereo not given) are above 200 µM and 11.2 µM.
In the same order, the values of `COc1ccc2c(c1)C(=O)/C(=C/c1ccccc1)C2` are above 200 µM and 47.9 µM.
For `O=C1C=C(N2CCCC2)c2cc(N3CCCC3)ncc2C1=O`, the outcome was inactive.
Still for that read-out and setting: in the case of `c1ccc(CN(Cc2ccccn2)Cc2ccccn2)cc1` it was “inactive”.
`CN(C)CCCNC(=O)c1cc(NC(=O)c2cc(NC(=O)c3cc(NC(=O)/C=C/C(=O)Nc4cn(C)c(C(=O)Nc5cn(C)c(C(=O)Nc6cn(C)c(C(=O)NCCCN(C)C)n6)n5)n4)cn3C)cn2C)cn1C`: the EC50 was above 50.1 µM and the IC50 is above 50.1 µM.
In the case of `CCCCN=C(NCCCC)OC1CCCCC1`, the EC50 was above 200 µM and the half-maximal inhibitory concentration (IC50) amounted to 64.6 µM.
In the case of `CC(=O)CC1(OC(=O)C2C(C=C(C)C)C2(C)C)C(=O)Nc2ccccc21` (stereo not given), the EC50 is above 200 µM and the IC50 worked out at 105 µM.
Taken in the same sequence, the figures for `OCCCN1CCCC12CCCCC2` were above 200 µM and above 200 µM.
Taken in the same sequence, the figures for `CC(=O)OC1CC[C@@]2(C)C(=CC[C@@H]3[C@@H]2CC[C@]2(C)Nc4c(cnn4-c4ccc(F)cc4)C[C@@H]32)C1` (stereo not given in full) were above 10 µM and above 10 µM.
Taken in the same sequence, the figures for `COC(=O)C1=C(C(=O)OC)C2(C3C(SC)=CC(C)(C)CC3S1)N(Cc1ccccc1)CCN2Cc1ccccc1` (stereo not given) were above 9.12 µM and above 9.12 µM.
For the molecule `COc1ccccc1OC(=O)/C=C/c1ccccc1`, the EC50 is above 200 µM and the IC50 came to 3.72 µM.
In the same order, the values of `Cc1cc2n(C)cc(-c3ccnn3C)c(=O)n2n1` are above 151 µM and above 151 µM.
In the same order, the values of `CCSSc1ccccc1C(=O)O` are above 200 µM and 32.4 µM.
Consider `C/C(=C\c1ccccc1)C(O)S(=O)(=O)O` (stereo not given), for which the outcome was inactive.
As to `COc1ccc2c(c1)c1c(n2CCN2CCOCC2)-c2cccc(OC)c2CC1`, the result was inactive.
Consider `O=C1OCCC1(Br)C(Br)c1ccccc1` (stereo not given), for which the EC50 was above 200 µM and the half-maximal inhibitory concentration (IC50) was 6.03 µM.
Taken in the same sequence, the figures for `C[N+]12C=CC=C1C(N1CCCC1)c1scc(-c3ccc(Br)cc3)c12` (stereo not given) were above 200 µM and 10.7 µM.
As to `CCNc1ncnc2sc(SCc3ccccc3)nc12`, the EC50 is above 200 µM and the half-inhibitory concentration (IC50) is above 200 µM.
In the case of `CSc1nc(NC2OC(CO)C(O)C(O)C2O)cc(=O)n1C` (stereo not given), the outcome was inactive.
`CNc1ccc(C=C2c3ccccc3-c3ccccc32)cc1`: the EC50 was above 13.2 µM and the IC50 came out at 4.79 µM.
In the same order, the values of `O=c1n(CC2CS2)c2ccccc2n1CC1CS1` (stereo not given) are above 339 µM and 6.61 µM.
As for `CC(=O)NC(=O)c1ccccc1O`, the EC50 was above 724 µM and the IC50 turned out to be 389 µM.
Take `CC(=O)/C(=C\n1c(=S)[nH]c2ccc([N+](=O)[O-])cc21)C(=O)Nc1ccccc1C`: the EC50 is above 200 µM and the IC50 is 89.1 µM.
In the same order, the values of `CN1CCC(SC2Cc3cc(Cl)ccc3Sc3ccccc32)CC1` (stereo not given) are above 69.2 µM and 12 µM.
In the same order, the values of `NCCCNCCCCN1CC1` are above 200 µM and 1.17 µM.
With `COc1ccc(C(=O)C2CCC(C(=O)O)C2)cc1` (stereo not given), the outcome was inactive.
Regarding `CC(C)(CN1CCCCC1)C(/C=C/c1ccc(Cl)c(Cl)c1)=N\NC(=O)N/N=C(/C=C/c1ccc(Cl)c(Cl)c1)C(C)(C)CN1CCCCC1`, the EC50 is above 200 µM and the IC50 worked out at 2.24 µM.
